Target: T1, organophosphate hydrolase (OPH) (Brevundimonas diminuta, UniProt P0A434)
T1 construct: purchased Genencor DEFENZ 130G, lot 102-6181-001
Test: Time course of permethrin degradation by OPH, permethrin quantified by GCMS
Type: biochemical
Conditions: for Amount of Permethrin measured: 5 μL of 0.31 mg/mL OPH added to 995 μL of 2.5 mg/mL permethrin, pH 8.5, 22° C., ppm at the detector
Method: OPH was assayed for the ability to degrade permethrin. Its efficacy has been measured by performing time course experiments wherein a sample of OPH is added to a sample of permethrin. Degraded permethrin is then separated from the reaction mixture and detected on a GCMS.
Experimental Methods and Equipment. A Shimadzu GC2010 Gas Chromatograph with AOC 20i Auto Injector and a Shimadzu GCMS QP2010S Quadrapole Mass Spectrometer were used to analyze the experimental samples. A Supelco Equity-5 column was used (length: 30.0 m, thickness: 0.25 μm, diameter: 0.25 mm) for the assays. However, analogous columns may be substituted.
The equipment was run with the following parameters: • column oven temperature: 120° C. • injector temperature: 250° C. • injection: splitless • pre-run rinses: 3 • post-run rinses: 3 • sample rinses: 2 • linear velocity: 30 cm/sec • column flow: 0.64 mL/min • split ratio: 10 • detector voltage: relative to tuning • ion source temperature: 250° C. • interface temperature: 270° C. • solvent cut time: 3 min • run time: 35 min • temperature ramp: 5° C./min • scan speed: 833
Experimental assays were run using recombinant OPH (DEFENZ™ 130G, lot 102-6181-001; Genencor). Reagents included ammonium carbonate (Sigma 207861, lot 12919JC), cobalt chloride (JT Baker 1670-04, lot Y41640), hydrochloric acid (JT Baker 5620-02, lot A23506), propanol (Sigma 154970, lot 04242AD), and permethrin (Sigma-Pestanal 45614, lot 7079×).
Preparation of Enzyme Samples. OPH enzyme granules (2% protein) were dissolved in 33 mM ammonium carbonate buffer, pH 8.5, at 22° C. The reaction mixture was agitated for 30 minutes, first vortexed, then slowly agitated on a temperature-controlled platform shaker. A 1.5 mL sample of the enzyme solution was taken and centrifuged for 1 minute at 13,000 rpm. An aliquot of the resulting supernatant is used in the pesticide degradation reaction.
Preparation of Permethrin Samples. A stock permethrin sample at a concentration of 100 mg/mL was made by dissolving an appropriate amount of permethrin standard into propanol. The stock sample was stored under refrigeration. For generating standard curves on the GCMS, permethrin standards were made by diluting an aliquot of the stock permethrin sample into propanol to achieve a concentration of 1 mg/mL and 10 mg/mL. Permethrin to be used in the enzyme reaction was prepared by diluting an aliquot of the stock solution into 33 mM ammonium carbonate buffer at the desired pH for a particular reaction, and at room temperature.
Enzyme Reactions. In a 1.5 mL tube, 250 μL of a 10 mg/mL permethrin solution in propanol was added to 0.75 mL of 33 mM ammonium carbonate buffer, pH 8.5. A 995 μL aliquot of the permethrin solution was placed in a 1.5 mL gas chromatography (GC) sample vial, to which was added a 5 μL aliquot of a 0.31 mg/mL OPH enzyme solution. To inactivate the reaction at any specific time point, a 10 μL aliquot of the reaction solution was removed and added to 990 μL of propanol in a GC sample vial. These samples were then loaded on the GCMS autosampler.
Results and Discussion. This study was conducted to determine whether OPH degrades permethrin. To quantitatively measure amounts of permethrin, the Shimadzu GC with Quadrapole MS detector was used, as in previous pesticide experiments. A standard curve was generated using 1 mg/mL and 10 mg/mL stock solutions in propanol. Regression of the standard curve yielded R2 values of 0.9997 above 50 ppm and of 0.998 below 50 ppm.
Preliminary experiments were conducted to ascertain optimum concentrations for the enzyme reactions. […] Samples were taken at time points of 0, 1, 5, 15, and 30 minutes by removing 10 μL of the reaction mixture and adding it to 990 μL of propanol. […]

`CC1(C)C(C=C(Cl)Cl)C1C(=O)OCc1cccc(Oc2ccccc2)c1` (stereo not shown) [permethrin] was tested, and the “degraded amount of permethrin at the detector” value (after 30 minutes) was 12 ppm, the “Amount of Permethrin measured” value (time 0 min) was 31.47 ppm and the “Amount of Permethrin measured” value (time 1 min) was 25.8 ppm. For the same compound, the “Amount of Permethrin measured” value (time 5 min) was 25.88 ppm, the “Amount of Permethrin measured” value (time 15 min) was 24.64 ppm and the “Amount of Permethrin measured” value (time 30 min) was 19.27 ppm. For the same compound, the “initial, rapid degradation of permethrin at the detector” value (within 1 minute of the start of the reaction) was “approximately 6 ppm”.
